Where two headings read alike, the source gives them in different places.

This assay relates to AMPA receptors. The assay can be described thus: Excitatory fluxes induced by AMPA in Xenopus oocytes (2-electrode voltage-clamp). The class given is cell-based. The following applies: Xenopus oocytes injected with rat cerebral cortex poly-(A+) mRNA, AMPA 10 μM. How it is done: Study of the Excitatory Fluxes Induced by AMPA in Xenopus oocytes
mRNAs are prepared from cerebral cortex of male Wistar rat by the guanidinium thiocyanate/phenol/chloroform method. The poly-(A^+) mRNAs are isolated by chromatography on oligo-dT cellulose and injected in an amount of 50 ng per oocyte. The oocytes are left to incubate for 2 to 3 days at 18° C. to allow expression of the receptors and are then stored at from 8 to 10° C.
Electrophysiological recording is carried out in a Plexiglass® chamber at from 20 to 24° C. in OR2 medium (J. Exp. Zool., 1973, 184, 321-334) by the 2-electrode “voltage-clamp” method, a 3rd electrode being placed in the bath to serve as reference.
All the compounds are administered via the incubation medium and the electric current is measured at the end of the period of administration. AMPA is used at a concentration of 10 μM. For each compound studied, the concentration that doubles (EC2×) or quintuples (EC5×) the intensity of the current induced by AMPA alone (5 to 50 nA) is determined.

Take `O=S1(=O)NC2CCCN2c2ccc(OC(=S)Oc3ccccc3)cc21` (centres unmarked) [Example 2, O-(5,5-Dioxido-2,3,3a,4-tetrahydro-1H-pyrrolo[2,1-c][1,2,4]-benzothiadiazin-7-yl)O-phenyl thiocarbonate]: the Concentration doubling (EC2×) or quintupling (EC5×) the AMPA current came out at 1.8 µM (read-out: EC2× (concentration that doubles the intensity of the current induced by AMPA alone)) and 9.6 µM (read-out: EC5× (concentration that quintuples the intensity of the current induced by AMPA alone)).

The values are drawn from patent publication US7262189B2, “Benzothiazine and benzothiadiazine derivatives, method for preparing same and pharmaceutical compositions containing same” (Les Laboratoires Server, priority 2001, dated 2007).
